Like-named read-outs stand apart in the source and are kept apart here.
Legend:
EBC-1 cells = assay: Anti-proliferation activity, CTG, EBC-1 cells; format: cell-based, human
Protocol: (§1) Experimental objective: To evaluate the anti-proliferation activities of the compounds against MKN-45 cells, EBC-1 cells, Hs746T cells and Vero cells.
(§2) Experimental methods: Tumor cell lines were cultured and periodically passaged, and cells in logarithmic growth phase were taken for plate spreading. The cells were stained with Trypan blue, counted and adjusted to an appropriate density. 50 μL of cell suspension was added into each well of a culture plate, and 50 μL of nutrient solution without cells was added into a blank control well. The culture plate was precultured for 24 h in an incubator under the condition of 37° C., 5% CO2 and 100% relative humidity.
(§3) The DMSO stock solutions of the compounds 1-28 and Capmatinib were prepared, and diluted with Tecan D300e. Each compound was diluted to 7 concentration levels: 0.50 μM, 0.125 μM, 0.031 μM, 0.0078 μM, 0.0020 μM, 0.00049 μM, 0.00012 μM. The experiment was carried out in triplicate.
(§4) 50 μL of the solution was added into each designated well, and the culture plate was incubated for 48 h. 50 μL of CTG working solution was added to each well. The culture plate was wrapped with aluminum foil to avoid light and shaken in the shaker for 2 min to induce cell lysis. The culture plate was placed at room temperature for 10 min to stabilize light-emitting signal which was detected with a 2014 EnVision plate reader. Experimental data was processed by GraphPad Prism 7 to calculate IC50.

[1] = test system: human EBC-1 cell subcutaneous xenograft model; assay: In vivo anti-tumor assessment in EBC-1 cell xenograft tumor mouse model; set-up: species or system mice; details: 10 mg/kg P.O. QD × 15 days; for inhibition of growth of the tumor in mice (tumor volume change): FIG. 2
Protocol: Experimental objective: To investigate in vivo efficacy of representative compounds on human lung squamous carcinoma cell (human EBC-1 cell) subcutaneous xenograft model.
Experimental methods: The EBC-1 cell xenograft tumor mouse model was used, according to the diameters of tumor, the tumor volume (TV), relative tumor volume (RTV), relative tumor proliferation rate (T/C (%)) and tumor growth inhibition value (TGI (%)) were calculated.
TGI (%) or T/C (%) of the compounds was evaluated. TGI (%) reflects a tumor growth inhibitory rate. TGI (%) was calculated as follows: TGI (%)=[1−(average tumor volume at the end of administration in a treatment group-average tumor volume at the beginning of administration in the treatment group)/(average tumor volume at the end in a solvent control group-average tumor volume at the beginning in the solvent control group)]×100%.
T/C (%) was calculated as follows: T/C (%)=TRTV/CRTV×100%; where TRTV is treatment RTV, and CRTV is negative control RTV. According to the measurement results of the tumor, RTV was calculated, and the calculating formula for RTV is as follows: RTV=Vt/V0; where V0 is the average tumor volume measured on the day of first administration; and Vt is the average tumor volume measured on a specified day. TRTV and CRTV were measured on the same day.

Vero cells = assay: Anti-proliferation activity, CTG, Vero cells; format: cell-based
Protocol: as §1, §2, §3, §4

MKN-45 cells = assay: Anti-proliferation activity, CTG, MKN-45 cells; format: cell-based
Protocol: as §1, §2, §3, §4

in vivo = details: both, Kunming, mouse, po
Hs746T cells = assay: Anti-proliferation activity, CTG, Hs746T cells; format: cell-based
Protocol: as §1, §2, §3, §4

c-MET = c-MET (Homo sapiens (Human), UniProt P08581); assay: c-MET kinase inhibitory activity (ELISA, poly(Glu,Tyr) substrate); format: biochemical; details: read-out: c-MET kinase inhibitory enzymatic activity IC50
c-MET, sequence (P08581 25-1390): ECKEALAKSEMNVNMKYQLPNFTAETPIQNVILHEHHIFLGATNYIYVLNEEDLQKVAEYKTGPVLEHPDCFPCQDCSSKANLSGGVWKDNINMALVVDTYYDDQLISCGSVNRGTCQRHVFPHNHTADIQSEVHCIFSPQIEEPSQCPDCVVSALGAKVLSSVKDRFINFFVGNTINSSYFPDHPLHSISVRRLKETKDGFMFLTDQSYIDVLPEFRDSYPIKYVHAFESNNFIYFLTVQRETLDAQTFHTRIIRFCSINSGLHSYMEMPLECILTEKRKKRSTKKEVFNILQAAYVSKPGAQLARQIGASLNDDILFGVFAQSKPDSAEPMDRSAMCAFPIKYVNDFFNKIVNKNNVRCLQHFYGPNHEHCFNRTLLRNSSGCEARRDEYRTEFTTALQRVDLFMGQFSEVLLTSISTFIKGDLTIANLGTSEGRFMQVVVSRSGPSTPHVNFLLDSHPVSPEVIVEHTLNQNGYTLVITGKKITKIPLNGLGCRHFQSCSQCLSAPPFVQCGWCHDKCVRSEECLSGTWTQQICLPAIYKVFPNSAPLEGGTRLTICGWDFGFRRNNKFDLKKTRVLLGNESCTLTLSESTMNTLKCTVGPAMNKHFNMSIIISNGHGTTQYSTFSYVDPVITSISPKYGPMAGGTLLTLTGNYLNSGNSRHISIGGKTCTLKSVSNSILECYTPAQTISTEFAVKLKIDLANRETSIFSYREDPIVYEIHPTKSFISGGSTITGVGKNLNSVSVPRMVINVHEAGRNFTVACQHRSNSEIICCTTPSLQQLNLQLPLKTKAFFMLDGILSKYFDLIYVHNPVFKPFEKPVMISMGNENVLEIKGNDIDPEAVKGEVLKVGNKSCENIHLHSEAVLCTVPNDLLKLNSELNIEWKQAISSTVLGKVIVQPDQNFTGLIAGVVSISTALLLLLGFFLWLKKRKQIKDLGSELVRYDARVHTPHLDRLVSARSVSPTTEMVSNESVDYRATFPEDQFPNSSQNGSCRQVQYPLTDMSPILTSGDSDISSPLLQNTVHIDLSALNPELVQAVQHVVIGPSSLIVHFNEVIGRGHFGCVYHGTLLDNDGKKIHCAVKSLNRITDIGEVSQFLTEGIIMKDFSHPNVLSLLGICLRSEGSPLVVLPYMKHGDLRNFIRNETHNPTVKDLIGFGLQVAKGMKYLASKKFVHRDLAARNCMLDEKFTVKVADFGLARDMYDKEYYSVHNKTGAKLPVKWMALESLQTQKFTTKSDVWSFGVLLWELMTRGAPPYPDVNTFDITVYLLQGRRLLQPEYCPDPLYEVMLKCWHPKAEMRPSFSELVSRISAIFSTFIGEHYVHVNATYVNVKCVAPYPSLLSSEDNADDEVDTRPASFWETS

SPF Kunming mice = details: mouse, in vivo, po
[2] = Homo sapiens, EBC-1 cells, 48 h, CTG
[3] = Chlorocebus sabaeus, Vero cells, 48 h, CTG
[4] = Homo sapiens, MKN-45 cells, 48 h, CTG
[5] = Homo sapiens, Hs746T cells, 48 h, CTG

| SMILES | IC50 (EBC-1 cells; [2]) | IC50 (Vero cells; [3]) | IC50 (MKN-45 cells; [4]) | LD50 (in vivo) | IC50 (Hs746T cells; [5]) | IC50 (EBC-1 cells; EBC-1 cells, 48 h, CTG) | IC50 (Vero cells; Vero cells, 48 h, CTG) | IC50 (c-MET; ATP 4 μM, 37° C. 1 h) | IC50 (MKN-45 cells; MKN-45 cells, 48 h, CTG) | LD50 (SPF Kunming mice) | IC50 (Hs746T cells; Hs746T cells, 48 h, CTG) | further results |
| --- | --- | --- | --- | --- | --- | --- | --- | --- | --- | --- | --- | --- |
| CNC(=O)c1ccc(-c2cnc3ncc(Cc4ccc5ncccc5c4)n3n2)cc1F [Capmatinib, reference compound] | 3.9 nM | 68 nM | 5.7 nM | 164 mg/kg | 4.5 nM | – | – | – | – | – | – | T/C(%) [1]: 24.97%; TGI(%) [1]: 91.23%; Tumor Volume (Day 15) [1]: 225 ± 25 mm^3; changes in body weight of the mice ([1]; end of the experiment, FIG. 1): greater losses in body weight compared to those in the other groups; inhibition of growth of the tumor in mice (tumor volume change) ([1]; end of the experiment): could effectively inhibit the growth of the tumor in mice |
| CNC(=S)c1ccc(-c2cnc3ncc(Cc4ccc5ncccc5c4)n3n2)cc1F [Compound 1] | – | – | – | – | – | 1.4 nM | 129 nM | 0.0022 nM | 1.5 nM | 293 mg/kg | 1.6 nM | T/C(%) [1]: 15.09%; TGI(%) [1]: 103.24%; Tumor Volume (Day 15) [1]: 136 ± 17 mm^3; inhibition of growth of the tumor in mice (tumor volume change) ([1]; end of the experiment): better inhibitory effects |
| CN(C)C(=S)c1ccc(-c2cnc3ncc(Cc4ccc5ncccc5c4)n3n2)cc1F [Compound 2] | 1.2 nM | 126 nM | 1.1 nM | 284 mg/kg | 1.4 nM | – | – | 0.0019 nM | – | – | – | – |
| CC(C)NC(=S)c1ccc(-c2cnc3ncc(Cc4ccc5ncccc5c4)n3n2)cc1F [Compound 3] | 1.8 nM | 101 nM | 1.5 nM | 291 mg/kg | 1.5 nM | – | – | 0.0016 nM | – | – | – | – |
| Fc1cc(-c2cnc3ncc(Cc4ccc5ncccc5c4)n3n2)ccc1C(=S)NC1CC1 [Compound 4] | 1.8 nM | 216 nM | 1.9 nM | 320 mg/kg | 1.4 nM | – | – | 0.0025 nM | – | – | – | – |
| CNC(=S)c1ccc(-c2cnc3ncc(Cc4ccc5ncccc5c4)n3n2)c(F)c1 [Compound 5] | – | – | – | – | – | 1.2 nM | 138 nM | 0.0021 nM | 1.6 nM | 298 mg/kg | 1.6 nM | – |
| CNC(=S)c1cc(F)c(-c2cnc3ncc(Cc4ccc5ncccc5c4)n3n2)cc1F [Compound 6] | – | – | – | – | – | 1.9 nM | 116 nM | 0.0015 nM | 1.9 nM | 292 mg/kg | 1.9 nM | – |
| CNC(=S)c1ccc(-c2cnc3ncc(Cc4ccc5ncccc5c4)n3n2)c(F)c1F [Compound 7] | – | – | – | – | – | 1.2 nM | 127 nM | 0.0022 nM | 1.3 nM | 305 mg/kg | 1.8 nM | – |
| CNC(=S)c1ccc(-c2cnc3ncc(Cc4ccc5ncccc5c4)n3n2)cc1Cl [Compound 8] | – | – | – | – | – | 1.8 nM | 142 nM | 0.0019 nM | 1.7 nM | 321 mg/kg | 1.8 nM | – |
| CNC(=S)c1ccc(-c2cnc3ncc(Cc4ccc5ncccc5c4)n3n2)cc1N [Compound 9] | 1.6 nM | 252 nM | 1.8 nM | 297 mg/kg | 1.4 nM | – | – | 0.0017 nM | – | – | – | – |
| CNC(=S)c1ccc(-c2cnc3ncc(Cc4ccc5ncccc5c4)n3n2)cc1NC [Compound 10] | 1.9 nM | 164 nM | 1.8 nM | 292 mg/kg | 1.5 nM | – | – | 0.0016 nM | – | – | – | – |
| CNC(=S)c1ccc(-c2cnc3ncc(Cc4ccc5ncccc5c4)n3n2)cc1O [Compound 11] | 1.8 nM | 231 nM | 1.4 nM | 296 mg/kg | 1.4 nM | – | – | 0.0025 nM | – | – | – | – |
| CNC(=S)c1ccc(-c2cnc3ncc(Cc4ccc5ncccc5c4)n3n2)cc1OC [Compound 12] | 1.7 nM | 236 nM | 1.1 nM | 286 mg/kg | 1.1 nM | – | – | 0.0019 nM | – | – | – | – |
| CNC(=S)c1ccc(-c2cnc3ncc(Cc4cc(F)c5ncccc5c4)n3n2)cc1F [Compound 13] | – | – | – | – | – | 1.7 nM | 152 nM | 0.0017 nM | 1.2 nM | 314 mg/kg | 1.4 nM | – |
| CNC(=S)c1ccc(-c2cnc3ncc(Cc4cc(F)c5ncccc5c4F)n3n2)cc1F [Compound 14] | 1.2 nM | 226 nM | 1.5 nM | 291 mg/kg | 1.1 nM | – | – | 0.0026 nM | – | – | – | – |
| CNC(=S)c1ccc(-c2cnc3ncc(Cc4cc(Cl)c5ncccc5c4)n3n2)cc1F [Compound 15] | – | – | – | – | – | 1.5 nM | 238 nM | 0.0013 nM | 1.6 nM | 305 mg/kg | 1.3 nM | – |
| CNC(=S)c1ccc(-c2cnc3ncc(Cc4cc(C(F)(F)F)c5ncccc5c4)n3n2)cc1F [Compound 16] | – | – | – | – | – | 1.3 nM | 156 nM | 0.0015 nM | 1.3 nM | 296 mg/kg | 1.7 nM | T/C(%) [1]: 17.98%; TGI(%) [1]: 99.73%; Tumor Volume (Day 15) [1]: 162 ± 23 mm^3; inhibition of growth of the tumor in mice (tumor volume change) ([1]; end of the experiment): better inhibitory effects |
| CNC(=S)c1ccc(-c2cnc3ncc(Cc4ccc5occc5c4)n3n2)cc1F [Compound 18] | 1.1 nM | 148 nM | 1.5 nM | 302 mg/kg | 1.5 nM | – | – | 0.0013 nM | – | – | – | – |
| CNC(=S)c1ccc(-c2cnc3ncc(Cc4ccc5scnc5c4)n3n2)cc1F [Compound 19] | 1.4 nM | 251 nM | 1.9 nM | 297 mg/kg | 1.4 nM | – | – | 0.0019 nM | – | – | – | – |
| CNC(=S)c1ccc(-c2cnc3ncc(Cc4ccc5c(c4)OCO5)n3n2)cc1F [Compound 20] | 1.8 nM | 164 nM | 1.1 nM | 305 mg/kg | 1.2 nM | – | – | 0.0021 nM | – | – | – | – |
| CNC(=S)c1ccc(-c2cnc3ncc(C(O)c4ccc5ncccc5c4)n3n2)cc1F (centres unmarked) [Compound 21] | – | – | – | – | – | 1.3 nM | 132 nM | 0.0014 nM | 1.2 nM | 298 mg/kg | 1.1 nM | – |
| CNC(=S)c1ccc(-c2cnc3ncc(C(=O)c4ccc5ncccc5c4)n3n2)cc1F [Compound 22] | – | – | – | – | – | 1.7 nM | 231 nM | 0.0016 nM | 1.5 nM | – | 1.8 nM | – |
| CNC(=S)c1ccc(-c2cnc3ncc(C(OC)c4ccc5ncccc5c4)n3n2)cc1F (centres unmarked) [Compound 23] | – | – | – | – | – | 1.1 nM | 157 nM | 0.0015 nM | 1.7 nM | 320 mg/kg | 1.4 nM | – |
| CNC(=S)c1ccc(-c2cnc3ncc(C(c4ccc5ncccc5c4)N(C)C)n3n2)cc1F (centres unmarked) [Compound 25] | – | – | – | – | – | – | – | – | – | 287 mg/kg | – | IC50 (EBC-1 cells): 1 nM; IC50 (Vero cells): 192 nM; IC50 (c-MET): 0.0023 nM; IC50 (MKN-45 cells): 1.3 nM; IC50 (Hs746T cells): 1.3 nM |
| CNC(=S)c1ccc(-c2cnc3ncc(C(N)c4ccc5ncccc5c4)n3n2)cc1F (centres unmarked) [Compound 26] | – | – | – | – | – | 1.8 nM | 282 nM | 0.0017 nM | 1.1 nM | 295 mg/kg | 1.1 nM | – |
| CNC(=S)c1ccc(-c2cnc3ncc(/C(=N/OC)c4ccc5ncccc5c4)n3n2)cc1F [Compound 27] | – | – | – | – | – | 1.5 nM | 163 nM | 0.0019 nM | 1.3 nM | 310 mg/kg | 1.8 nM | – |
| CNC(=S)c1ccc(-c2cnc3ncc(C(F)(F)c4ccc5ncccc5c4)n3n2)cc1F [Compound 28] | – | – | – | – | – | 1.2 nM | 237 nM | 0.0018 nM | 1.5 nM | 294 mg/kg | 1.4 nM | – |
